Test results published in patent publication US9023789B2, “Amylin analogs and pharmaceutical compositions thereof” (Novo Nordisk A/S, priority 2012, dated 2015).
≈ marks a conversion by molar mass, not a printed value. Like-named read-outs stand apart in the source and are kept apart here. Numbered stars: 1 amine (or outer) side, 2 acyl side, 3 side chain; on linkers, the order of the positions; unused ones are H or OH. Bridge positions count the residues as written; N and C are the ends. Side chains are listed from the residue outwards. Peptide text beside a SMILES is read from it. * marks the point of attachment. C20 diacid = O=C(O)CCCCCCCCCCCCCCCCCCC(=O)*; γGlu = O=C(O)[C@H](CCC(=O)[*:2])N[*:1]

What was measured:
[1] = ASSAY (IV) determination of solubility; assay type: physicochemical
Summary of the method: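 Dissolve polypeptide in water ([…] stock); combine 1:1 with each 100 mM buffer (glycylglycine pH 3.0/4.0/5.0; bistrispropane pH 6.0/6.5/7.0/7.5/8.0); hold 18 hours at room temperature; centrifuge; quantify polypeptide by UPLC.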

[2] = ASSAY (III) ThT fibrillation assay for physical stability; assay type: physicochemical
Summary of the method: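 Formulations with 1 μM ThT, pH adjusted as required, incubated at 37 °C with 960 rpm orbital shaking; fluorescence (ex 444/em 485 nm) read every 20 min. Fibrillation reported as mean ThT fluorescence ± SD of 4–8 replicates at time points; polypeptide concentration measured by reverse-phase HPLC before and after, post-centrifugation.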

Sprague Dawley (SD) rats = experiment: ASSAY (I) efficacy testing on appetite (food intake) using an ad libitum fed rat model; assay type: in vivo; details: rat
Summary of the method: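 Ad libitum fed SD rats (200–250 g) were housed singly on a reversed light/dark cycle and given one 0.01–3 mg/kg dose ip, po or sc just before lights-off, with 5–8 per dose group plus vehicle controls. Food intake was recorded hourly for 7 h, then at 24 h and sometimes 48 h; Grubbs outliers were excluded.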

[3] = bistrispropane buffer, pH 6.5, read-out: Solubility pH 6.5 Concentration
[4] = bistrispropane buffer, pH 7.5, read-out: Solubility pH 7.5 Concentration
[5] = bistrispropane buffer, pH 6.0, read-out: Solubility pH 6.0 Concentration
[6] = bistrispropane buffer, pH 7.0, read-out: Solubility pH 7.0 Concentration
[7] = bistrispropane buffer, pH 8.0, read-out: Solubility pH 8.0 Concentration
[8] = glycylglycine buffer, pH 3.0, read-out: Solubility pH 3.0 Concentration
[9] = glycylglycine buffer, pH 4.0, read-out: Solubility pH 4.0 Concentration
[10] = glycylglycine buffer, pH 5.0, read-out: Solubility pH 5.0 Concentration

Row | Structure (SMILES) | solubility at 18 h [1, 3] [µM] | solubility at 18 h [1, 4] [µM] | solubility at 18 h [1, 5] [µM] | solubility at 18 h [1, 6] [µM] | solubility at 18 h [1, 7] [µM] | solubility at 18 h [1, 8] [µM] | solubility at 18 h [1, 9] [µM] | solubility at 18 h [1, 10] [µM] | ThT pH 4.0 lag time (h) [2] [h] | Food intake reduction 0-24 h 30 nmol/kg (%) (Sprague Dawley (SD) rats; 0-24 h) | Food intake reduction 24-48 h 30 nmol/kg (%) (Sprague Dawley (SD) rats; 24-48 h) | Food intake reduction 0-24 h 3 nmol/kg (%) (Sprague Dawley (SD) rats; 3 nmol/kg, 0-24 h) | Food intake reduction 24-48 h 3 nmol/kg (%) (Sprague Dawley (SD) rats; 3 nmol/kg, 24-48 h)
1 | CC[C@H](C)[C@H](NC(=O)[C@H](C)NC(=O)CNC(=O)[C@H](Cc1ccccc1)NC(=O)[C@H](CC(N)=O)NC(=O)[C@@H]1CCCN1C(=O)[C@H](CO)NC(=O)[C@H](CO)NC(=O)[C@H](Cc1c[nH]cn1)NC(=O)[C@H](CCCNC(=N)N)NC(=O)[C@H](CC(C)C)NC(=O)[C@H](Cc1ccccc1)NC(=O)[C@H](CCC(=O)O)NC(=O)[C@H](C)NC(=O)[C@H](CC(C)C)NC(=O)[C@H](CCCNC(=N)N)NC(=O)[C@H](CCC(N)=O)NC(=O)[C@@H](NC(=O)[C@H](C)NC(=O)[C@@H]1CSSC[C@H](NC(=O)[C@@H](N)CCCCNC(=O)CC[C@H](NC(=O)CCCCCCCCCCCCCCCCCCC(=O)O)C(=O)O)C(=O)N[C@@H](CC(N)=O)C(=O)N[C@@H]([C@@H](C)O)C(=O)N[C@@H](C)C(=O)N[C@@H]([C@@H](C)O)C(=O)N1)[C@@H](C)O)C(=O)N1CCC[C@H]1C(=O)N[C@@H](CO)C(=O)N[C@@H](CO)C(=O)N[C@H](C(=O)N[C@@H](CC(N)=O)C(=O)N[C@H](C(=O)NCC(=O)N[C@@H](CCCNC(=N)N)C(=O)N[C@@H](CCC(=O)O)C(=O)N[C@H](C(=O)N[C@@H](Cc1ccc(O)cc1)C(N)=O)[C@@H](C)O)C(C)C)[C@@H](C)O [Example 108] (H-K([γGlu-C20 diacid])CNTATCATQRLAEFLRHSSPNFGAIPSSTNVGRETY-NH2; disulfide 2-7; N-terminus assumed) | ≥ 200 | ≥ 200 | ≥ 200 | ≥ 200 | ≥ 200 | ≥ 200 | ≥ 200 | ≥ 200 | 45 | 29 | 0 |  | 
2 | CC[C@H](C)[C@H](NC(=O)[C@H](C)NC(=O)CNC(=O)[C@H](Cc1ccccc1)NC(=O)[C@H](CC(N)=O)NC(=O)[C@@H]1CCCN1C(=O)[C@H](CO)NC(=O)[C@H](CO)NC(=O)[C@H](Cc1c[nH]cn1)NC(=O)[C@H](CCCNC(=N)N)NC(=O)[C@H](CC(C)C)NC(=O)[C@H](Cc1ccccc1)NC(=O)[C@H](CCC(=O)O)NC(=O)[C@H](C)NC(=O)[C@H](CC(C)C)NC(=O)[C@H](CCCNC(=N)N)NC(=O)[C@H](CCC(N)=O)NC(=O)[C@@H](NC(=O)[C@H](C)NC(=O)[C@@H]1CSSC[C@H](NC(=O)[C@@H](N)CCCCNC(=O)CC[C@H](NC(=O)CCCCCCCCCCCCCCCCCCC(=O)O)C(=O)O)C(=O)N[C@@H](CC(N)=O)C(=O)N[C@@H]([C@@H](C)O)C(=O)N[C@@H](C)C(=O)N[C@@H]([C@@H](C)O)C(=O)N1)[C@@H](C)O)C(=O)N1CCC[C@H]1C(=O)N[C@@H](CO)C(=O)N[C@@H](CO)C(=O)N[C@H](C(=O)N[C@@H](CC(N)=O)C(=O)N[C@H](C(=O)NCC(=O)N1CCC[C@H]1C(=O)N[C@@H](CCC(=O)O)C(=O)N[C@H](C(=O)N[C@@H](Cc1ccc(O)cc1)C(N)=O)[C@@H](C)O)C(C)C)[C@@H](C)O [Example 109] (H-K([γGlu-C20 diacid])CNTATCATQRLAEFLRHSSPNFGAIPSSTNVGPETY-NH2; disulfide 2-7 (inferred); N-terminus assumed) | ≥ 200 | ≥ 200 | ≥ 200 | ≥ 200 | ≥ 200 | ≥ 200 | ≥ 200 | ≥ 200 | 35 | 89 | 91 | 57 | 50
3 | CC[C@H](C)[C@H](NC(=O)[C@H](C)NC(=O)CNC(=O)[C@H](Cc1ccccc1)NC(=O)[C@H](CC(N)=O)NC(=O)[C@@H]1CCCN1C(=O)[C@H](CO)NC(=O)[C@H](CO)NC(=O)[C@H](Cc1c[nH]cn1)NC(=O)[C@H](CCCNC(=N)N)NC(=O)[C@H](CC(C)C)NC(=O)[C@H](Cc1ccccc1)NC(=O)[C@H](CCC(=O)O)NC(=O)[C@H](C)NC(=O)[C@H](CC(C)C)NC(=O)[C@H](CCCNC(=N)N)NC(=O)[C@H](CCC(N)=O)NC(=O)[C@@H](NC(=O)[C@H](C)NC(=O)[C@@H]1CSSC[C@H](NC(=O)[C@@H](N)CCCCNC(=O)CC[C@H](NC(=O)CC[C@H](NC(=O)CCCCCCCCCCCCCCCCCCC(=O)O)C(=O)O)C(=O)O)C(=O)N[C@@H](CC(N)=O)C(=O)N[C@@H]([C@@H](C)O)C(=O)N[C@@H](C)C(=O)N[C@@H]([C@@H](C)O)C(=O)N1)[C@@H](C)O)C(=O)N1CCC[C@H]1C(=O)N[C@@H](CO)C(=O)N[C@@H](CO)C(=O)N[C@H](C(=O)N[C@@H](CC(N)=O)C(=O)N[C@H](C(=O)NCC(=O)N1CCC[C@H]1C(=O)N[C@@H](CCCNC(=N)N)C(=O)N[C@H](C(=O)N[C@@H](Cc1ccc(O)cc1)C(N)=O)[C@@H](C)O)C(C)C)[C@@H](C)O [Example 110] (H-K([γGlu-γGlu-C20 diacid])CNTATCATQRLAEFLRHSSPNFGAIPSSTNVGPRTY-NH2; disulfide 2-7) | ≥ 200 | 184 (≈ 842 µg/mL) | ≥ 200 | ≥ 200 | 166 (≈ 760 µg/mL) | ≥ 200 | ≥ 200 | ≥ 200 | 17 | 68 | 31 |  | 
4 | CC[C@H](C)[C@H](NC(=O)[C@H](C)NC(=O)CNC(=O)[C@H](Cc1ccccc1)NC(=O)[C@H](CC(N)=O)NC(=O)[C@@H]1CCCN1C(=O)[C@H](CO)NC(=O)[C@H](CO)NC(=O)[C@H](Cc1c[nH]cn1)NC(=O)[C@H](CCCNC(=N)N)NC(=O)[C@H](CC(C)C)NC(=O)[C@H](Cc1ccccc1)NC(=O)[C@H](CC(N)=O)NC(=O)[C@H](C)NC(=O)[C@H](CC(C)C)NC(=O)[C@H](CCCNC(=N)N)NC(=O)[C@H](CCC(N)=O)NC(=O)[C@@H](NC(=O)[C@H](C)NC(=O)[C@@H]1CSSC[C@H](NC(=O)[C@@H](N)CCCCNC(=O)CC[C@H](NC(=O)CCCCCCCCCCCCCCC(=O)O)C(=O)O)C(=O)N[C@@H](CC(N)=O)C(=O)N[C@@H]([C@@H](C)O)C(=O)N[C@@H](C)C(=O)N[C@@H]([C@@H](C)O)C(=O)N1)[C@@H](C)O)C(=O)N1CCC[C@H]1C(=O)N[C@@H](CO)C(=O)N[C@@H](CO)C(=O)N[C@H](C(=O)N[C@@H](CC(N)=O)C(=O)N[C@H](C(=O)NCC(=O)N[C@@H](Cc1c[nH]cn1)C(=O)N[C@@H](CC(N)=O)C(=O)N[C@H](C(=O)N[C@@H](Cc1ccc(O)cc1)C(N)=O)[C@@H](C)O)C(C)C)[C@@H](C)O [Example 111] | ≥ 200 | ≥ 200 | ≥ 200 | ≥ 200 | 165 (≈ 722 µg/mL) | ≥ 200 | ≥ 200 | ≥ 200 | 10 | 17 | 0 |  | 
5 | CC[C@H](C)[C@H](NC(=O)[C@H](C)NC(=O)CNC(=O)[C@H](Cc1ccccc1)NC(=O)[C@H](CC(N)=O)NC(=O)[C@@H]1CCCN1C(=O)[C@H](CO)NC(=O)[C@H](CO)NC(=O)[C@H](Cc1c[nH]cn1)NC(=O)[C@H](CCCNC(=N)N)NC(=O)[C@H](CC(C)C)NC(=O)[C@H](Cc1ccccc1)NC(=O)[C@H](CC(N)=O)NC(=O)[C@H](C)NC(=O)[C@H](CC(C)C)NC(=O)[C@H](CCCNC(=N)N)NC(=O)[C@H](CCC(N)=O)NC(=O)[C@@H](NC(=O)[C@H](C)NC(=O)[C@@H]1CSSC[C@H](NC(=O)[C@@H](N)CCCCNC(=O)CC[C@H](NC(=O)CCCCCCCCCCCCCCCCC(=O)O)C(=O)O)C(=O)N[C@@H](CC(N)=O)C(=O)N[C@@H]([C@@H](C)O)C(=O)N[C@@H](C)C(=O)N[C@@H]([C@@H](C)O)C(=O)N1)[C@@H](C)O)C(=O)N1CCC[C@H]1C(=O)N[C@@H](CO)C(=O)N[C@@H](CO)C(=O)N[C@H](C(=O)N[C@@H](CC(N)=O)C(=O)N[C@H](C(=O)NCC(=O)N[C@@H](Cc1c[nH]cn1)C(=O)N[C@@H](CC(N)=O)C(=O)N[C@H](C(=O)N[C@@H](Cc1ccc(O)cc1)C(N)=O)[C@@H](C)O)C(C)C)[C@@H](C)O [Example 113] | ≥ 200 | 154 (≈ 678 µg/mL) | ≥ 200 |  | 96 (≈ 423 µg/mL) | ≥ 200 | ≥ 200 | ≥ 200 | 45 | 48 | 2 |  | 
